Experimental data taken from ChEMBL document CHEMBL3588836, “Development of Quinoline-2,4(1H,3H)-diones as Potent and Selective Ligands of the Cannabinoid Type 2 Receptor” (J Med Chem, 2015).
Active and inactive are the calls of the source. No cut-off for these calls is given here.

Assays:
Cannabinoid receptor 2 [1] = target: T1, Cannabinoid receptor 2 (Homo sapiens, UniProt P34972); assay: Antagonist activity against CB2R (unknown origin) CHO cells stably expressing Galpha16 assessed as inhibition of CP55940-induced increase in intracellular calcium level pre-treated 10 mins before CP55940 stimulation by microplate reader based assay; assay type: functional, cell-based
T1 sequence (P34972 whole entry): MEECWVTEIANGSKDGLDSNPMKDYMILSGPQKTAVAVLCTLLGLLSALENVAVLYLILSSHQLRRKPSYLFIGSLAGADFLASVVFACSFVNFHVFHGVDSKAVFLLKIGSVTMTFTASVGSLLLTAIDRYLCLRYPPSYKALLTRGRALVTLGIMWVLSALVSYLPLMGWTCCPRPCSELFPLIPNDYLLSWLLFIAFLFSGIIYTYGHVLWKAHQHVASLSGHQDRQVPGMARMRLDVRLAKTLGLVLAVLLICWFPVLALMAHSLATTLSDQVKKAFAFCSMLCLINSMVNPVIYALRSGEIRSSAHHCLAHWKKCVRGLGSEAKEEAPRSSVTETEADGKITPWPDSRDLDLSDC

Cannabinoid receptor 1 [2] = target: T2, Cannabinoid receptor 1 (Homo sapiens, UniProt P21554); assay type: functional, cell-based, CHO
T2 sequence (P21554 whole entry): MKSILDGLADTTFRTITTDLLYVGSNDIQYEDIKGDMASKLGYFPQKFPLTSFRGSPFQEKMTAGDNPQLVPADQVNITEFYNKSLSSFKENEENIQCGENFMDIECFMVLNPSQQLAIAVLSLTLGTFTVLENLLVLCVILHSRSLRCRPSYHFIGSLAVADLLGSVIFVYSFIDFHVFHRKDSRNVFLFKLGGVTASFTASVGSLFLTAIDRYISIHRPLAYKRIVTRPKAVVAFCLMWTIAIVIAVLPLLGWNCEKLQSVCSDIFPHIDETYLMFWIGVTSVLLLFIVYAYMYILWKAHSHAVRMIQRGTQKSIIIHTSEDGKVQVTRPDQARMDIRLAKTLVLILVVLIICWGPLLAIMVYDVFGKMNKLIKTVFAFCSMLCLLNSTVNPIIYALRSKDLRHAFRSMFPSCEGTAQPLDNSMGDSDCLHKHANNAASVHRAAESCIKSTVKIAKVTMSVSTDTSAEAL

CHO [3] = assay: Selectivity index, ratio of IC50 for CB1R (unknown origin) CHO cells stably expressing Galpha16 to IC50 for CB2R (unknown origin) CHO cells stably expressing Galpha16; assay type: cell-based; conditions: Homo sapiens
Cannabinoid receptor 2 [4] = target: T1, Cannabinoid receptor 2; assay: Antagonist activity against CB2R (unknown origin) CHO cells stably expressing Galpha16 assessed as inhibition of CP55940-induced increase in intracellular calcium level pre-treated 10 mins before CP55940 stimulation by microplate reader based assay relative to […]; assay type: functional, cell-based
Cannabinoid receptor 2 [5] = target: T1, Cannabinoid receptor 2; assay: Agonist activity at CB2R (unknown origin) CHO cells stably expressing Galpha16 assessed as increase in intracellular calcium level by microplate reader based assay relative to CP55940; assay type: functional, cell-based
Mus musculus [6] = assay: (§1) Reduction in leukocyte infiltration in spinal cord of C57BL/6 mouse experimental autoimmune encephalomyelitis model of multiple sclerosis at 10 mg/kg, po administered once daily starting from day 3 after immunization until end of experiment and measured on day 21 after immunization by hematoxylin and eosin staining; assay type: functional, organism-based
CHO [7] = assay: Selectivity index, ratio of EC50 for CB1R (unknown origin) CHO cells stably expressing Galpha16 to EC50 for CB2R (unknown origin) CHO cells stably expressing Galpha16; assay type: cell-based; conditions: Homo sapiens
Cannabinoid receptor 2 [8] = target: T1, Cannabinoid receptor 2; assay: Agonist activity at CB2R (unknown origin) CHO cells stably expressing Galpha16 assessed as increase in intracellular calcium level by microplate reader based assay; assay type: functional, cell-based; conditions: read-out: EC50
Mus musculus [9] = assay: as §1, with “extensive demyelination” for “leukocyte infiltration”, “white matter” for “spinal cord”, “Luxol fast blue” for “hematoxylin and eosin”; assay type: functional, organism-based
Cannabinoid receptor 1 [10] = target: T2, Cannabinoid receptor 1; assay: Agonist activity at CB1R (unknown origin) CHO cells stably expressing Galpha16 assessed as increase in intracellular calcium level by microplate reader based assay; assay type: functional, cell-based
Mus musculus [11] = assay: Reduction in experimental autoimmune encephalomyelitis clinical scores in C57BL/6 mouse experimental autoimmune encephalomyelitis model of multiple sclerosis at 10 mg/kg, po administered once daily starting from day 3 after immunization until end of experiment and measured on day 21 after immunization; assay type: functional, organism-based

| SMILES | IC50 (Cannabinoid receptor 2 [1]) | IC50 (Cannabinoid receptor 1 [2]) | Ratio IC50 (CHO [3]) | Emax (Cannabinoid receptor 2 [4]) | Emax (Cannabinoid receptor 2 [5]) | inhibition (Mus musculus [6]) | Ratio EC50 (CHO [7]) | EC50 (Cannabinoid receptor 2 [8]) | inhibition (Mus musculus [9]) | EC50 (Cannabinoid receptor 1 [10]) | inhibition (Mus musculus [11]) |
| --- | --- | --- | --- | --- | --- | --- | --- | --- | --- | --- | --- |
| CCCCCN1C(=O)/C(=C/NC2CCCCC2)C(=O)c2cc(Cl)ccc21 | 1.51 µM | > 10 µM | > 6.62 | 102% |  |  |  |  |  |  |  |
| CCCCN1C(=O)/C(=C/NC2CCCCC2)C(=O)c2cccc(C)c21 |  |  |  |  | 116% | Active | > 108 | 0.0927 µM | Active | > 10 µM | Dose-dependent effect |
